{"source": "paper PMC8138767", "about": "“Intrinsically disordered substrates dictate SPOP subnuclear localization and ubiquitination activity” (The Journal of Biological Chemistry, 2021)", "key": {"[1]": {"tested_on": "SPOP-dependent turnover in T-REx-293 cells", "assay": "SPOP-dependent Pdx1 stability (Western blot)", "type": "cell-based", "conditions": "no MG132, harvested 28 h after transfection, Western blot (Fig. S3D)", "description": "In a similar experiment, the cells were not treated with a proteasome inhibitor to observe the SPOP-dependent stability of each Pdx1 variant.\n(§1) T-REx-293 cells (Invitrogen) were seeded at a density of 0.8 × 10^6 per well in 6-well plates (tissue culture–treated plates (cat. no 3516, Corning)). After 24 h, cells were transfected with plasmids encoding Pdx1–GFP, SPOP–myc, His–ubiquitin, HA–Rbx1, and myc–CUL3 (as indicated) using the Qiagen Effectene transfection reagent. 24 h after transfection, the cells were treated with either dimethyl sulfoxide or 20 μM MG132 for 4 h before being harvested. Cells were lysed in buffer A (6 M guanidine HCl, 100 mM sodium phosphate, pH 8.0, and 10 mM imidazole). The lysates were sonicated, cleared, and incubated with Ni-NTA Agarose (Qiagen) for 3 h at RT, followed by 16 h at 4 °C. The beads were washed twice with buffer A and twice with a buffer composed of 1:3 buffer A:buffer T1 (buffer T1: 25 mM Tris HCl, pH 8.0, and 20 mM imidazole). The beads were finally transferred to buffer T1 and then boiled in the SDS-PAGE loading buffer containing 300 mM imidazole. Pdx1 stability assays were performed as described above, except that the cells were not treated with MG132. Cells expressing Pdx1–GFP or a variant were harvested 28 h after transfection, resuspended in 2x SDS-loading dye, and boiled for 5 min before SDS-PAGE analysis.\n(§2) All proteins were resolved by SDS-PAGE. Separated proteins were analyzed by immunoblotting using either the ECL or the ECL Select Western blotting detection reagents (Amersham). The antibodies used were mouse anti-Pdx1 used at 1:500 for pulldown or 1:2000 for inputs (clone 26771, MAB2419, R&D Systems), mouse anti-myc (1:250, clone 9E10, Santa Cruz Biotechnology), and rabbit anti-GAPDH (1:8000, clone EPR1689, Abcam). horseradish peroxidase-conjugated secondary antibodies were sourced from Jackson ImmunoResearch Laboratories and used at 1:20,000 dilution (goat anti-rabbit IgG, 111-035-003 and goat anti-mouse, 115-035-003)."}, "[2]": {"tested_on": "SPOP-mediated ubiquitination in T-REx-293 cells", "assay": "SPOP-mediated ubiquitination of Pdx1 variants (Ni-NTA pulldown, immunoblot)", "type": "cell-based", "conditions": "SPOP–myc and GFP–Pdx1 coexpressed 24 h, then 20 μM MG132 or DMSO for 4 h, immunoblot (Fig. 6C)", "description": "We next sought to determine whether SPOP-driven ubiquitination of Pdx1 could occur outside of previously implicated droplets. Given the SPOP relocalization phenotype that we observe in cells that express SPOP and Pdx1, we hypothesized that the ubiquitination activity was occurring in the diffuse nucleoplasm and that optimal activity requires both SB sites. To test this hypothesis, we performed in cell ubiquitination assays with GFP–Pdx1 variants. SPOP–myc and GFP–Pdx1 were coexpressed for 24 h in T-REx-293 cells, followed by a 4-h treatment with 20 μM MG132 or dimethyl sulfoxide. Proteins modified with His-ubiquitin were enriched by pulldown on nickel-nitrilotriacetic acid (Ni-NTA) resin.\n(§3) A plasmid encoding full-length human Pdx1 (amino acids 1-283) in pcDNA3.1 with a C-terminal GFP tag was purchased from GenScript. Full-length mouse SPOP (identical to the human sequence) with a V5 epitope tag in pcDNA3 was generated previously ([21]). The coding sequence for full-length mouse SPOP was inserted into pcDNA4/TO/myc (Invitrogen) for the T-REx system. pcDNA3-myc-CUL3 (cat no. 19893) and pcDNA–HA2–ROC1 (Rbx1) (cat no. 19897) were obtained from Addgene. pcDNA3 containing His-ubiquitin was a gift from Wenyi Wei.\nUbiquitination and Western blots\nas §1, §2"}, "[3]": {"assay": "In vitro phase separation of Pdx1", "type": "physicochemical"}, "V5-SPOP in HeLa cells": {"tested_on": "V5-SPOP in HeLa cells", "assay": "Immunofluorescence: V5-SPOP localization on coexpression of GFP–Pdx1 variants", "type": "cell-based", "conditions": "24 h after transfection; for V5-SPOP localization, high Pdx1 expression: cells expressing GFP–Pdx1 at high levels (high GFP intensity); for V5-SPOP localization, low Pdx1 expression: cells expressing GFP–Pdx1 at low levels; for SPOP relocalization from nuclear speckles by Pdx1 variant: coexpressed with V5-SPOP, three biological replicates", "description": "HeLa cells were cultured under sterile conditions with Dulbecco’s modified Eagle’s medium (DMEM) (Gibco) supplemented with 10% fetal bovine serum and antibiotics/antimycotics (Gibco) (see Table S5 for key reagents and resources). T-REx-293 cells (cat. no. R710-07) were obtained from Invitrogen. Cells were grown on DMEM supplemented with 10% fetal bovine serum (Gibco), GlutaMax (Gibco), and Penicillin-Streptomycin (Gibco) and kept under selection by 5 μg/ml blasticidin. All cells were grown at 37 °C under 5% CO2 and were mycoplasma free at the time the experiments were performed.\nas §3\nFor immunofluorescence experiments, 0.5 × 10^6 cells were seeded on borosilicate glass coverslips in 6-well plates. After 24 h, cells were transfected with 400 ng of each plasmid using the Qiagen Effectene transfection reagent according to the manufacturer protocol. 24 h after transfection, the cells were treated with 4% paraformaldehyde in PBS for 30 min at RT. Cells were permeabilized with 0.1% Triton X-100 in PBS (PBST) for 5 min at 21 °C, followed by blocking in 0.5% BSA in PBST for 1 h at 21 °C. Signal from GFP-tagged proteins was observed directly. Cells were stained in primary antibodies diluted in 0.5% BSA in PBST overnight at 4 °C with mouse anti-SC-35 (1:300, ab11826; Abcam) and chicken anti-V5 (1:300, NB600-379; Novus Biologicals). Cells were incubated with secondary antibodies for 2 h at 21 °C. The secondary antibodies used were goat anti-mouse Alexa Fluor 647 (1:250, A-21235; Thermo Fisher) and goat anti-chicken Alexa Fluor 555 (1:250, A-21437; Thermo Fisher). Cells on coverslips were treated with 300 nM 4′,6-diamidino-2-phenylindole (DAPI) for 5 min at 21 °C. Coverslips were mounted on glass slides with ProLong Diamond mounting reagent (Thermo Fisher) and cured before imaging on a Zeiss LSM 880 Upright microscope. All images were analyzed and prepared in Fiji ([53]).\nAll immunofluorescence data were averaged over three biological replicates. Cells not expressing both Pdx1 and SPOP were excluded from sampling. Raw images were collected in the Zeiss Zen software and then exported for viewing and analysis in Fiji. Nuclei of individual cells were designated manually in Fiji using the DAPI channel as a guide. The cells were binned based on whether SPOP was localized to nuclear speckles (puncta); cells with both diffuse and punctate SPOP signal were binned as “speckled.” The grayscale signal intensity of the green channel (Pdx1–GFP) was averaged over the DAPI-designated nuclear area. Next, the raw GFP intensity data points (one data point per cell analyzed) were plotted to generate a violin plot distribution. The average, minimum, and maximum values are shown by horizontal lines on the plot. Individual data points are also shown for rigor. […] All plotting and statistical tests were performed using in-house python scripts that can be found at https://github.com/idpemery/spop-pdx1."}}, "data": [{"substance": "Pdx1: full-length human Pdx1 (amino acids 1-283) with a C-terminal GFP tag", "values": [{"measurement": "SPOP-dependent Pdx1 stability", "setting": "[1]; listed as Pdx1-GFP-WT", "value": "almost entirely degraded"}, {"measurement": "SPOP-dependent Pdx1 stability", "setting": "[1]; listed as Pdx1–WT", "value": "readily degraded"}, {"measurement": "ubiquitination of Pdx1 variant", "setting": "[2]; listed as GFP–Pdx1–WT", "value": "is ubiquitinated in cells"}, {"measurement": "ubiquitination of Pdx1 variant", "setting": "[2]; listed as Pdx1–WT", "value": "robust polyubiquitination"}, {"measurement": "in vitro phase separation", "setting": "[3]", "value": "do not observe in vitro phase separation"}, {"measurement": "V5-SPOP localization, high Pdx1 expression", "setting": "V5-SPOP in HeLa cells", "value": "SPOP is diffuse"}, {"measurement": "V5-SPOP localization, high Pdx1 expression", "setting": "V5-SPOP in HeLa cells; listed as WT–Pdx1", "value": "primarily diffuse V5-SPOP"}, {"measurement": "V5-SPOP localization, low Pdx1 expression", "setting": "V5-SPOP in HeLa cells", "value": "SPOP localizes to nuclear speckles"}, {"measurement": "V5-SPOP localization, low Pdx1 expression", "setting": "V5-SPOP in HeLa cells; listed as WT–Pdx1", "value": "V5-SPOP localizes to nuclear speckles"}, {"measurement": "SPOP relocalization from nuclear speckles by Pdx1 variant", "setting": "V5-SPOP in HeLa cells", "value": "relocalization of SPOP from nuclear speckles"}, {"measurement": "SPOP relocalization from nuclear speckles by Pdx1 variant", "setting": "V5-SPOP in HeLa cells; listed as GFP–Pdx1–WT", "value": "SPOP relocalized from nuclear speckles into the diffuse nucleoplasm"}]}]}
